This is an account of results in paper PMC6085462 (Frontiers in Microbiology, 2018).

Series [1] has as its system pancreatin; trypsin. Description: Duodenal solution: 8% pancreatin, 4% porcine bile solutions and 2 mg/mL trypsin solution in intestinal electrolyte solution adjusted to pH 6.3. The settings on record: 37°C, up to 120 min.
Another series relates to pepsin; lipase. In words: TIM-1 gastric compartment: simulated gastric secretions containing pepsin (0.19 mg/mL) or lipase (0.25 mg/mL) in an electrolyte solution, pH 4.5 decreased gradually to 1.7. The settings on record: up to 60 min.
Series [2] concerns pancreatin; trypsin. Description: static duodenal model: 8% pancreatin, 4% porcine bile, 2 mg/mL trypsin in intestinal electrolyte solution, pH 6.3. Particulars: bovine trypsin, 37°C, up to 120 min.
In series [3] the test system is α-chymotrypsin from bovine pancreas (EC 3.4.21.1). Description: α-chymotrypsin alone at a final concentration of 8 mg/mL in the intestinal electrolyte solution. The settings on record: 37°C, up to 120 min.
The test system of a further series is pancreatin. In words: pancreatin alone in the intestinal electrolyte solution. Particulars: porcine, 37°C, up to 120 min.
Series [4] deals with elastase type IIA from porcine pancreas. In words: elastase alone in the intestinal electrolyte solution. Particulars: 37°C, up to 120 min.
Series [5] deals with Pancreatin from porcine pancreas. In words: pancreatin alone at a final concentration of 8 mg/mL in the intestinal electrolyte solution. Particulars: 37°C, up to 120 min.
In series [6] the test system is elastase type IIA from porcine pancreas (EC 3.4.21.36). In words: elastase alone at a final concentration of 8 mg/mL in the intestinal electrolyte solution. Particulars: 37°C, up to 120 min.
For series [7] the following is noted: ref Kheadr et al., 2010; cited from earlier work. From the text:
A bacteriocin is most often defined as a peptide of molecular mass mostly <10,000 Da that is inhibitory to species closely related to the producer species. Bacteriocins differ from antibiotics in being synthesized by translation of an mRNA transcript, having generally a narrow spectrum of activity and being effective at concentrations as low as nanomolar ([Nes, 2011]). Some bacteriocins may undergo post-translational modifications and as such belong to the family of ribosomally-synthesized and post-translationally-modified peptides (RiPPs) ([Arnison et al., 2013]) Their potential as antimicrob ...

“Also recorded” adds a separate entry of the source. Where no end group is shown, it is not given here.

GGAGHVPEYFVGIGTPISFYG: the cleaved bond result is reported as “Y9-F10, first_seen, 0 min; also recorded: F10-V11, first_seen, 0 min; also recorded: I13-G14, first_seen, 0 min; also recorded: G12-I13, 60 min; also recorded: V11-G12, 60 min” with pancreatin; trypsin [1]; “G14-T15, 60 min” in the series with pepsin; lipase; “I13-G14, 60 min; also recorded: F10-V11, 60 min; also recorded: Y9-F10, 60 min; also recorded: Y9-F10, 120 min; also recorded: V11-G12, 120 min” with pancreatin; trypsin [2]; “Y9-F10, major, 0 min; also recorded: F10-V11, 0 min” in series [3]; “F10-V11, 0 min; also recorded: Y9-F10, 0 min; also recorded: I13-G14, 0 min” with pancreatin; “F10-V11, 0 min; also recorded: I13-G14, 0 min; also recorded: Y9-F10, 0 min” in [4]. Further, the cleaved bond result in series [5] was “V11-G12, 0 min; also recorded: Y9-F10, major, 0 min; also recorded: F10-V11, 0 min; also recorded: I13-G14, 0 min”; in series [6], “F10-V11, 0 min; also recorded: I13-G14, major, 0 min; also recorded: Y9-F10, 0 min; also recorded: V11-G12, 0 min”.
For the substance “pediocin PA-1 (KYYGNGVTCGKHSCSVDWGKATTCIINNGAMAWATGGHQGNHKC; ends and bridges not checked; cysteine pairing not given here; UniProt P29430 19-62, looked up) [class IIa bacteriocin]”, in [7], the “Antibacterial activity in the small intestine under gastrointestinal conditions” value is given as “losing completely its antibacterial activity”.
